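Growth conditions: 96-well plates. Treatment: test compound, 48 hours, 5 concentrations. Analysis: linear interpolation between bracketing concentrations; unreached endpoints set to highest concentration. Definition used: TGI = concentration required for complete inhibition of growth.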
Tests used:
Experiment in all cases: DTP human tumour cell line panel, 48 h
786-0 renal = tested on: 786-0 renal
A498 renal = tested on: A498 renal
A549 NSCLC = tested on: A549 NSCLC
ACHN renal = tested on: ACHN renal
BT-549 breast = tested on: BT-549 breast
CAKI-1 renal = tested on: CAKI-1 renal
CCRF-CEM leukemia = tested on: CCRF-CEM leukemia
COLO 205 colon = tested on: COLO 205 colon
DU-145 prostate = tested on: DU-145 prostate
EKVX NSCLC = tested on: EKVX NSCLC
HCC-2998 colon = tested on: HCC-2998 colon
HCT-116 colon = tested on: HCT-116 colon
HCT-15 colon = tested on: HCT-15 colon
HL-60(TB) leukemia = tested on: HL-60(TB) leukemia
HOP-62 NSCLC = tested on: HOP-62 NSCLC
HOP-92 NSCLC = tested on: HOP-92 NSCLC
HS 578T breast = tested on: HS 578T breast
HT29 colon = tested on: HT29 colon
IGROV1 ovarian = tested on: IGROV1 ovarian
K-562 leukemia = tested on: K-562 leukemia
KM12 colon = tested on: KM12 colon
LOX IMVI melanoma = tested on: LOX IMVI melanoma
M14 melanoma = tested on: M14 melanoma
MALME-3M melanoma = tested on: MALME-3M melanoma
MCF7 breast = tested on: MCF7 breast
MDA-MB-231 breast = tested on: MDA-MB-231 breast
MDA-MB-435 = tested on: MDA-MB-435
MDA-N = tested on: MDA-N
MOLT-4 leukemia = tested on: MOLT-4 leukemia
NCI-H226 lung = tested on: NCI-H226 lung
NCI-H23 lung = tested on: NCI-H23 lung
NCI-H460 lung = tested on: NCI-H460 lung
NCI-H522 lung = tested on: NCI-H522 lung
NCI/ADR-RES ovarian = tested on: NCI/ADR-RES ovarian
OVCAR-3 ovarian = tested on: OVCAR-3 ovarian
OVCAR-4 ovarian = tested on: OVCAR-4 ovarian
OVCAR-5 ovarian = tested on: OVCAR-5 ovarian
PC-3 prostate = tested on: PC-3 prostate
RPMI-8226 leukemia = tested on: RPMI-8226 leukemia
RXF 393 renal = tested on: RXF 393 renal
SF-268 CNS = tested on: SF-268 CNS
SF-295 CNS = tested on: SF-295 CNS
SF-539 CNS = tested on: SF-539 CNS
SK-MEL-2 melanoma = tested on: SK-MEL-2 melanoma
SK-MEL-28 melanoma = tested on: SK-MEL-28 melanoma
SK-MEL-5 melanoma = tested on: SK-MEL-5 melanoma
SK-OV-3 ovarian = tested on: SK-OV-3 ovarian
SN12C renal = tested on: SN12C renal
SNB-19 CNS = tested on: SNB-19 CNS
SNB-75 CNS = tested on: SNB-75 CNS
SR leukemia = tested on: SR leukemia
SW-620 colon = tested on: SW-620 colon
T-47D breast = tested on: T-47D breast
TK-10 renal = tested on: TK-10 renal
U251 CNS = tested on: U251 CNS
UACC-257 melanoma = tested on: UACC-257 melanoma
UACC-62 melanoma = tested on: UACC-62 melanoma
UO-31 renal = tested on: UO-31 renal
OVCAR-8 ovarian = tested on: OVCAR-8 ovarian

O=[N+]([O-])/C(C(Cl)=C(Cl)Cl)=C(/Br)SCc1ccccc1
TGI (786-0 renal): 4.64 µM
TGI (A498 renal): 15.2 µM
TGI (A549 NSCLC): 15.2 µM
TGI (ACHN renal): 6.85 µM
TGI (BT-549 breast): 4.22 µM
TGI (CAKI-1 renal): 3.65 µM
TGI (CCRF-CEM leukemia): 0.633 µM
TGI (COLO 205 colon): 3.43 µM
TGI (DU-145 prostate): 25.7 µM
TGI (EKVX NSCLC): 12.5 µM
TGI (HCC-2998 colon): 21.1 µM
TGI (HCT-116 colon): 4.13 µM
TGI (HCT-15 colon): 4.98 µM
TGI (HL-60(TB) leukemia): 0.905 µM
TGI (HOP-62 NSCLC): 41.7 µM
TGI (HOP-92 NSCLC): 5.28 µM
TGI (HS 578T breast): 47.7 µM
TGI (HT29 colon): 4.92 µM
TGI (IGROV1 ovarian): 13.3 µM
TGI (K-562 leukemia): 2.04 µM
TGI (KM12 colon): 28.5 µM
TGI (LOX IMVI melanoma): 4.24 µM
TGI (M14 melanoma): 5.79 µM
TGI (MALME-3M melanoma): 11.9 µM
TGI (MCF7 breast): 9.11 µM
TGI (MDA-MB-231 breast): 6.06 µM
TGI (MDA-MB-435): 2.94 µM
TGI (MDA-N): 4.04 µM
TGI (MOLT-4 leukemia): 1.03 µM
TGI (NCI-H226 lung): 14.9 µM
TGI (NCI-H23 lung): 12 µM
TGI (NCI-H460 lung): 24.1 µM
TGI (NCI-H522 lung): 4.49 µM
TGI (NCI/ADR-RES ovarian): 15.3 µM
TGI (OVCAR-3 ovarian): 5.02 µM
TGI (OVCAR-4 ovarian): 8.19 µM
TGI (OVCAR-5 ovarian): 18.5 µM
TGI (PC-3 prostate): 7.21 µM
TGI (RPMI-8226 leukemia): 3.39 µM
TGI (RXF 393 renal): 4.01 µM
TGI (SF-268 CNS): 7.2 µM
TGI (SF-295 CNS): 31.5 µM
TGI (SF-539 CNS): 21.4 µM
TGI (SK-MEL-2 melanoma): 13.8 µM
TGI (SK-MEL-28 melanoma): 4.09 µM
TGI (SK-MEL-5 melanoma): 16.4 µM
TGI (SK-OV-3 ovarian): 36.4 µM
TGI (SN12C renal): 5.8 µM
TGI (SNB-19 CNS): 27.7 µM
TGI (SNB-75 CNS): 9.02 µM
TGI (SR leukemia): 4.2 µM
TGI (SW-620 colon): 4.16 µM
TGI (T-47D breast): 13.5 µM
TGI (TK-10 renal): 9.61 µM
TGI (U251 CNS): 14.5 µM
TGI (UACC-257 melanoma): 11.3 µM
TGI (UACC-62 melanoma): 16.1 µM
TGI (UO-31 renal): 5.72 µM

CCC(N)(C(=O)O)C(C)C (stereo unspecified)
TGI (786-0 renal): > 100 µM
TGI (A498 renal): > 100 µM
TGI (A549 NSCLC): > 100 µM
TGI (ACHN renal): > 100 µM
TGI (BT-549 breast): > 100 µM
TGI (CAKI-1 renal): > 100 µM
TGI (CCRF-CEM leukemia): > 100 µM
TGI (COLO 205 colon): > 100 µM
TGI (DU-145 prostate): > 100 µM
TGI (EKVX NSCLC): > 100 µM
TGI (HCC-2998 colon): > 100 µM
TGI (HCT-116 colon): > 100 µM
TGI (HCT-15 colon): > 100 µM
TGI (HL-60(TB) leukemia): > 100 µM
TGI (HOP-62 NSCLC): > 100 µM
TGI (HOP-92 NSCLC): > 100 µM
TGI (HS 578T breast): > 100 µM
TGI (HT29 colon): > 100 µM
TGI (IGROV1 ovarian): > 100 µM
TGI (K-562 leukemia): > 100 µM
TGI (KM12 colon): > 100 µM
TGI (LOX IMVI melanoma): > 100 µM
TGI (M14 melanoma): > 100 µM
TGI (MALME-3M melanoma): > 100 µM
TGI (MCF7 breast): > 100 µM
TGI (MDA-MB-231 breast): > 100 µM
TGI (MDA-MB-435): > 100 µM
TGI (MDA-N): > 100 µM
TGI (NCI-H226 lung): > 100 µM
TGI (NCI-H23 lung): > 100 µM
TGI (NCI-H460 lung): > 100 µM
TGI (NCI-H522 lung): > 100 µM
TGI (NCI/ADR-RES ovarian): > 100 µM
TGI (OVCAR-3 ovarian): > 100 µM
TGI (OVCAR-4 ovarian): > 100 µM
TGI (OVCAR-5 ovarian): > 100 µM
TGI (OVCAR-8 ovarian): > 100 µM
TGI (PC-3 prostate): > 100 µM
TGI (RPMI-8226 leukemia): > 100 µM
TGI (RXF 393 renal): > 100 µM
TGI (SF-268 CNS): > 100 µM
TGI (SF-295 CNS): > 100 µM
TGI (SF-539 CNS): > 100 µM
TGI (SK-MEL-2 melanoma): > 100 µM
TGI (SK-MEL-28 melanoma): > 100 µM
TGI (SK-MEL-5 melanoma): > 100 µM
TGI (SK-OV-3 ovarian): > 100 µM
TGI (SN12C renal): > 100 µM
TGI (SNB-19 CNS): > 100 µM
TGI (SNB-75 CNS): > 100 µM
TGI (SR leukemia): > 100 µM
TGI (SW-620 colon): > 100 µM
TGI (T-47D breast): > 100 µM
TGI (TK-10 renal): > 100 µM
TGI (U251 CNS): > 100 µM
TGI (UACC-257 melanoma): > 100 µM
TGI (UACC-62 melanoma): > 100 µM
TGI (UO-31 renal): > 100 µM

Source: PubChem BioAssay (NCI)
